Measured values from patent US20100099793A1, “Gluing and Sealing Compounds Having Antimicrobial Properties” (Thor GmbH, priority 2006, published 2010).

Columns and labels:
[1] = Analysis for active in the sealant without and after water storage (retention / leaching); format: physicochemical; details: silicone; for Active [ppm] Oit: oxime basis, 1000 ppm added
Description: These sections, described below as test specimens, were subjected, both without water storage and after 2 days of water storage in fully demineralized water, with a change of water at 24 hours, to the ISO 846 test, part B. In this test, the test specimens were placed on carbon-containing nutrient media (complete agar) for monitoring of the fungicidal action, and were then sprayed with a mixture of fungal spores; 0.1 ml of suspension per test specimen.
These sealants were analyzed for the amounts of OIT present, both without water storage and after 2 days of water storage, and the leaching (%) was calculated.

[2] = system: mixture of fungal spores (Aspergillus niger, Alternaria alternata, Penicillium funiculosum, Paecilomyces variotii, Gliocladium virens, Chaetomium globosum); assay: Microbiological test along the lines of EN ISO 846 part B: fungal growth on sealant test specimens on complete agar; format: cell-based; design: key to Fungal growth after 28 d Method B Complete agar a / Fungal growth after 28 d Method B Complete agar b: 0: No growth evident when viewed with a microscope.; 1: Slight growth, no growth evident to the naked eye, readily apparent microscopically.; Slight growth, readily apparent macroscopically, growth over not more than 25% of the sample surface.; 3: Moderate growth, growth over up to 50% of the sample surface.; 4: Severe growth, growth over more than 50% of the sample surface, but not over the entire area.; 5: Severe growth over the entire sample surface; details: silicone; for Fungal growth after 28 d Method B Complete agar a: duplicate a; for Fungal growth after 28 d Method B Complete agar b: duplicate b
Description: The microbiological tests were carried out each in duplicate determinations along the lines of the standard EN ISO 846 B. For this purpose the sealants themselves were applied to inert support material (e.g., glass plates) approximately 2 mm thick, and, after curing, were cut into sections measuring 3×3 cm.
[…] In this test, the test specimens were placed on carbon-containing nutrient media (complete agar) for monitoring of the fungicidal action, and were then sprayed with a mixture of fungal spores; 0.1 ml of suspension per test specimen.
The spore suspension contained 10^6 CFU/ml and comprised the following fungi:
The samples thus inoculated were incubated at 25° C. for 28 days. This was followed by a visual evaluation of the sample surface. Where no growth was evident with the naked eye, the test took place with the assistance of a microscope. The ISO 846 tests were evaluated using the following scheme: • 0 No growth evident when viewed with a microscope. • 1 Slight growth, no growth evident to the naked eye, readily apparent microscopically. • 2 Slight growth, readily apparent macroscopically, growth over not more than 25% of the sample surface. • 3 Moderate growth, growth over up to 50% of the sample surface. • 4 Severe growth, growth over more than 50% of the sample surface, but not over the entire area. • 5 Severe growth over the entire sample surface.

[3] = acetoxy basis, 500 ppm, water storage 0 d
[4] = acetoxy basis, 500 ppm, water storage 3 months (once a week 24 hour storage in fully demineralized water)
[5] = acetoxy basis, 1000 ppm, water storage 0 d
[6] = acetoxy basis, 1000 ppm, water storage 3 months (once a week 24 hour storage in fully demineralized water)
[7] = oxime basis, 500 ppm, water storage 0 d
[8] = oxime basis, 500 ppm, water storage 2 d
[9] = oxime basis, 1000 ppm, water storage 0 d
[10] = oxime basis, 1000 ppm, water storage 2 d

SMILES: CCCCCCCCn1sccc1=O [OIT, 2-n-octyl-4-isothiazolin-3-one]
- Amount of active (ppm) With water storage ([1]; acetoxy system, 400 ppm of OIT introduced, after 2 days of water storage): 265 ppm
- % leaching ([1]; acetoxy system, 400 ppm of OIT introduced, calculated from amounts without and after 2 days of water storage): 37%
- Amount of active (ppm) Without water storage ([1]; acetoxy system, 400 ppm of OIT introduced, without water storage): 420 ppm
- Active [ppm] Oit ([1]; 0 d (before water storage)): 740 ppm
- Active [ppm] Oit ([1]; 2 d (after water storage)): 230 ppm
- Fungal growth after 28 d Method B Complete agar a [2, 3]: 1
- Fungal growth after 28 d Method B Complete agar b [2, 3]: 2 (Slight growth, readily apparent macroscopically, growth over not more than 25% of the sample surface.)
- Fungal growth after 28 d Method B Complete agar a [2, 4]: 5
- Fungal growth after 28 d Method B Complete agar b [2, 4]: 5
- Fungal growth after 28 d Method B Complete agar a [2, 5]: 0
- Fungal growth after 28 d Method B Complete agar b [2, 5]: 0
- Fungal growth after 28 d Method B Complete agar a [2, 6]: 4 (Severe growth, growth over more than 50% of the sample surface, but not over the entire area.)
- Fungal growth after 28 d Method B Complete agar b [2, 6]: 5
- fungal growth (in words) ([2]; acetoxy basis, after the 3-month water storage cycles): heavily overgrown
- fungal growth / action (in words) ([2]; acetoxy basis, without water storage (0d)): good action
- Fungal growth after 28 d Method B Complete agar a [2, 7]: 0
- Fungal growth after 28 d Method B Complete agar b [2, 7]: 1
- Fungal growth after 28 d Method B Complete agar a [2, 8]: 3 (Moderate growth, growth over up to 50% of the sample surface.)
- Fungal growth after 28 d Method B Complete agar b [2, 8]: 3 (Moderate growth, growth over up to 50% of the sample surface.)
- Fungal growth after 28 d Method B Complete agar a [2, 9]: 0
- Fungal growth after 28 d Method B Complete agar b [2, 9]: 0
- Fungal growth after 28 d Method B Complete agar a [2, 10]: 3 (Moderate growth, growth over up to 50% of the sample surface.)
- Fungal growth after 28 d Method B Complete agar b [2, 10]: 2 (Slight growth, readily apparent macroscopically, growth over not more than 25% of the sample surface.)
- fungal growth (in words) ([2]; oxime basis, after water storage (2d)): moderately severe growth

SMILES: COC(=O)Nc1nc2ccccc2[nH]1 [carbendazim]
- Fungal growth after 28 d Method B Complete agar a [2, 3]: 3 (Moderate growth, growth over up to 50% of the sample surface.)
- Fungal growth after 28 d Method B Complete agar b [2, 3]: 4 (Severe growth, growth over more than 50% of the sample surface, but not over the entire area.)
- Fungal growth after 28 d Method B Complete agar a [2, 4]: 5
- Fungal growth after 28 d Method B Complete agar b [2, 4]: 5
- fungal colonization (in words) ([2]; acetoxy basis, 1000 ppm of active, without water storage (0d)): slight colonization
- Fungal growth after 28 d Method B Complete agar a [2, 5]: 2 (Slight growth, readily apparent macroscopically, growth over not more than 25% of the sample surface.)
- Fungal growth after 28 d Method B Complete agar b [2, 5]: 2 (Slight growth, readily apparent macroscopically, growth over not more than 25% of the sample surface.)
- Fungal growth after 28 d Method B Complete agar a [2, 6]: 4 (Severe growth, growth over more than 50% of the sample surface, but not over the entire area.)
- Fungal growth after 28 d Method B Complete agar b [2, 6]: 5
- fungal growth (in words) ([2]; acetoxy basis, both 500 and 1000 ppm, after the 3-month water storage cycle): severe fungal growth
